Test results: patent US9549932B2, “2-(morpholin-4-yl)-1,7-naphthyridines” (BAYER PHARMA AKTIENGESELLSCHAFT, priority 2014, dated 2017)
Where two headings read alike, the source gives them in different places.

Target: full-length human ATR protein (Homo sapiens (Human), UniProt Q13535)
Experiment: Binding assay ATR (TR-FRET tracer displacement)
Details: TR-FRET
In short: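 Full-length human GST-ATR co-purified with ATRIP, pre-complexed 30 min at 22 °C with anti-GST-Tb antibody, then pre-bound with compound 10 min. Tracer A or B added (2 µl of 100 nM solution), 30 min at 22 °C.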

[1] = tracer A, read-out: ATR binding (tracer A) IC50
[2] = tracer B, read-out: ATR binding (tracer B) IC50

Sequence of full-length human ATR protein (Q13535 other isoform, or with tags, fused parts or gaps): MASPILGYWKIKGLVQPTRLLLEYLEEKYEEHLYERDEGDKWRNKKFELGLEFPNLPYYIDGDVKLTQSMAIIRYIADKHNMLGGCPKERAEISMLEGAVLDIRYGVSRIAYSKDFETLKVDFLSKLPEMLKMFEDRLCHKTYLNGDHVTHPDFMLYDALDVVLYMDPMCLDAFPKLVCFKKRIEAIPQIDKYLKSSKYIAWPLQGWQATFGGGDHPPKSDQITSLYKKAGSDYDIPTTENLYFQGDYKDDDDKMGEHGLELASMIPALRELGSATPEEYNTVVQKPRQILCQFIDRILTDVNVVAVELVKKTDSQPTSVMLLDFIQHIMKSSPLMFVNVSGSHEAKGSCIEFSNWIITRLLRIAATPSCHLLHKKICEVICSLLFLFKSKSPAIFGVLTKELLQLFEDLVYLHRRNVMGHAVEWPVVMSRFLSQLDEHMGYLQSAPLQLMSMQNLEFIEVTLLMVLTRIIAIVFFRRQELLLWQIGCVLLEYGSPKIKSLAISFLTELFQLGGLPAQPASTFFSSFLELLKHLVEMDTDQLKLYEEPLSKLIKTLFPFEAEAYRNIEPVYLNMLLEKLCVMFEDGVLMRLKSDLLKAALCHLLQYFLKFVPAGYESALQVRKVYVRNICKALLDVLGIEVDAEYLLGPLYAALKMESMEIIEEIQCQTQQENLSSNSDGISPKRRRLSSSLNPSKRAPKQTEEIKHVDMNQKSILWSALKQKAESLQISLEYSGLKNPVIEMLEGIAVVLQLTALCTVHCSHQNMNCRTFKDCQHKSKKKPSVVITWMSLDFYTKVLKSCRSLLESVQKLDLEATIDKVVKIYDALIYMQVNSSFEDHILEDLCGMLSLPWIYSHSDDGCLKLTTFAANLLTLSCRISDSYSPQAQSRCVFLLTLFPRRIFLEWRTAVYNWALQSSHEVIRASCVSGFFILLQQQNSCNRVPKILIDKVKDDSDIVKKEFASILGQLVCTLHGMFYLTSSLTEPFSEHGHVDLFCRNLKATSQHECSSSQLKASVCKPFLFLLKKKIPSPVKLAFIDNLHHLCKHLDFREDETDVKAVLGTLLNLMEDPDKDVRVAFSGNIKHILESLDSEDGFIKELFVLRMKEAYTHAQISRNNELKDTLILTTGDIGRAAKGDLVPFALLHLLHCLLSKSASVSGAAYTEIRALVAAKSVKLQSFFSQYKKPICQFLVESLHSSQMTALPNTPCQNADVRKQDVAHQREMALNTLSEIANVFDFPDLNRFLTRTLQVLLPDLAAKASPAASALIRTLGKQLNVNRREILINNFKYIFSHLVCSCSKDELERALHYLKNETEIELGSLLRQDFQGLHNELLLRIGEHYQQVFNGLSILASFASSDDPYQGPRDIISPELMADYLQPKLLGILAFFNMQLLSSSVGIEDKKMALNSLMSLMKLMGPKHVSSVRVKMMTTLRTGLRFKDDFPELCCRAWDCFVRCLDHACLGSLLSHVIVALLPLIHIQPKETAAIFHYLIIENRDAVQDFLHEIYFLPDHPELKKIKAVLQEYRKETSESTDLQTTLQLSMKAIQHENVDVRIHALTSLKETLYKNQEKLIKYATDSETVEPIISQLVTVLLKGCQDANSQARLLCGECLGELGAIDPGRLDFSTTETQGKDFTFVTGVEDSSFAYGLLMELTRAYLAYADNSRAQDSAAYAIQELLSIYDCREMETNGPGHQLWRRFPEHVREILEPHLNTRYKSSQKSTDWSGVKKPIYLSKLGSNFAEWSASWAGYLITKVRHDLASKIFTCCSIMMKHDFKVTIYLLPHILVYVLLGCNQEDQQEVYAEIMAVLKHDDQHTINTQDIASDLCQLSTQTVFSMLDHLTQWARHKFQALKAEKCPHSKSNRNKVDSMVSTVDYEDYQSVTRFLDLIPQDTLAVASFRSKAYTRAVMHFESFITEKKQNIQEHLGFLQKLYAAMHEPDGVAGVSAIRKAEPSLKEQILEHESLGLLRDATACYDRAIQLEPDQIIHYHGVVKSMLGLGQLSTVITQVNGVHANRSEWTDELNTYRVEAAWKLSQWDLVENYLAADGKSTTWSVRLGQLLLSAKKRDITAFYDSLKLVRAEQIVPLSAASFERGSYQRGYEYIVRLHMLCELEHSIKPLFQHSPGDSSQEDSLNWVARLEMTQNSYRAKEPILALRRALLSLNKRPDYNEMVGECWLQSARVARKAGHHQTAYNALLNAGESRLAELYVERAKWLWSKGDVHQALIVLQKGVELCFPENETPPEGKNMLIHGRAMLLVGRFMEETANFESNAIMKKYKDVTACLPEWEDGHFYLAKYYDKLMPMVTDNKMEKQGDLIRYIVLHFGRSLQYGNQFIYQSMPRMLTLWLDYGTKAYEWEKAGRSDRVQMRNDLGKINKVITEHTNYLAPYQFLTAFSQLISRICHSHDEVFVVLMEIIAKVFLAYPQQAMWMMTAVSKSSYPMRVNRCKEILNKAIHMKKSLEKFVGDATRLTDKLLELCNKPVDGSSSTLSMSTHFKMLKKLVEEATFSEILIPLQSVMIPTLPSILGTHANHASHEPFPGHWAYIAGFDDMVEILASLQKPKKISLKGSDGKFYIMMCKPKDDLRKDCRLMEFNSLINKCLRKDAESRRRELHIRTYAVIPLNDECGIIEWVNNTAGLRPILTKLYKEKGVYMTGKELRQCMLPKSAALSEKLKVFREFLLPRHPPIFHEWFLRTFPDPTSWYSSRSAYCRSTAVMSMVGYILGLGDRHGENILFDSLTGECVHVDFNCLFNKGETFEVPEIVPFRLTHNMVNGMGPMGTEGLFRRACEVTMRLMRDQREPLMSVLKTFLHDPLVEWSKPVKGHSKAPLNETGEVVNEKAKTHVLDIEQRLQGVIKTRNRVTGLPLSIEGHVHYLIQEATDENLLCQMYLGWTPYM
Sequence of full-length human ATR protein (Q8WXE1 other isoform, or with tags, fused parts or gaps partner): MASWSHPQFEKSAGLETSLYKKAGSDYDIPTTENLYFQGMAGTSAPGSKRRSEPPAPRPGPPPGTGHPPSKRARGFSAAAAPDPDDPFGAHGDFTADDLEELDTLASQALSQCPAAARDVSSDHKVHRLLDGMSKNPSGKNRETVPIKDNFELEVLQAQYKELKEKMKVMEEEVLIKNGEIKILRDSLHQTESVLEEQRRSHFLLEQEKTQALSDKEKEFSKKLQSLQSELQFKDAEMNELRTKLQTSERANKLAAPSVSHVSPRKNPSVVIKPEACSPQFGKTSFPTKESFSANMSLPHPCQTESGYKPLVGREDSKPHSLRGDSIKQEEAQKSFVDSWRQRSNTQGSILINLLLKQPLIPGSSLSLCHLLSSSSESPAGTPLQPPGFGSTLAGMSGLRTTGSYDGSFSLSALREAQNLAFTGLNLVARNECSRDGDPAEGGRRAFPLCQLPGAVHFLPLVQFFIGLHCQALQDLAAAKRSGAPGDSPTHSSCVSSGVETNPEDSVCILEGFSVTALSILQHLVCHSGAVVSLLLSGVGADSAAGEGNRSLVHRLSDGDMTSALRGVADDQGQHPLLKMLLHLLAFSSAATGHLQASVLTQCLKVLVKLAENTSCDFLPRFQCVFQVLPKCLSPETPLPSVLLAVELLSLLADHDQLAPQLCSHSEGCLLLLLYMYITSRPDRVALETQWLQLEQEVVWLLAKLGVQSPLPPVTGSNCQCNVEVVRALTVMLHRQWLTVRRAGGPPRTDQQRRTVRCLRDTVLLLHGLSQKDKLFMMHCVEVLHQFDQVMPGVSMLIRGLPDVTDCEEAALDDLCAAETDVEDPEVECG

| Compound | IC50 [1] | IC50 [2] |
| --- | --- | --- |
| CCOc1cc(N2CCOCC2)nc2c(-c3cc[nH]n3)nccc12 [Example 43, 4-ethoxy-2-(morpholin-4-yl)-8-(1H-pyrazol-3-yl)-[1,7]naphthyridine] | 493 nM | 258 nM |
| COCCS(C)(=O)=Nc1cc(N2CCOC[C@H]2C)nc2c(-c3ccn[nH]3)nccc12 (stereo partly drawn) [Example 274, 4-{[(2-methoxyethyl)(methyl)oxido-λ^6-sulfanylidene]amino}-2-[(3R)-3-methylmorpholin-4-yl]-8-(1H-pyrazol-5-yl)-1,7-naphthyridine] | 62.7 nM | – |
| C[C@@H]1COCCN1c1cc(N2CCC(CO)CC2)c2ccnc(-c3ccn[nH]3)c2n1 [Example 84, (1-{2-[(3R)-3-methylmorpholin-4-yl]-8-(1H-pyrazol-5-yl)-1,7-naphthyridin-4-yl}piperidin-4-yl)methanol] | 6.6 nM | – |
| Cc1cc(-c2cc(N3CCOCC3)nc3c(-c4ccn[nH]4)nccc23)cnc1F [Example 224, 4-(6-fluoro-5-methylpyridin-3-yl)-2-(morpholin-4-yl)-8-(1H-pyrazol-5-yl)-1,7-naphthyridine] | 52.1 nM | – |
| c1cc(-c2nccc3c(OCC4CCOCC4)cc(N4CCOCC4)nc23)[nH]n1 [Example 287, 2-(morpholin-4-yl)-8-(1H-pyrazol-5-yl)-4-(tetrahydro-2H-pyran-4-ylmethoxy)-1,7-naphthyridine] | 675 nM | 461 nM |
| C[C@@H]1COCCN1c1cc(-c2ccc(S(C)(=O)=O)cc2)c2ccnc(-c3cc[nH]n3)c2n1 [Example 26, 4-(4-methanesulphonylphenyl)-2-((R)-3-methylmorpholin-4-yl)-8-(2H-pyrazol-3-yl)-[1,7]naphthyridine] | 15.6 nM | 6.36 nM |
| COc1ccsc1-c1cc(N2CCOC[C@H]2C)nc2c(-c3ccn[nH]3)nccc12 [Example 235, 4-(3-methoxythiophen-2-yl)-2-[(3R)-3-methylmorpholin-4-yl]-8-(1H-pyrazol-5-yl)-1,7-naphthyridine] | 21.3 nM | – |
| c1cc(-c2nccc3c(-c4ccc(N5CCOCC5)nc4)cc(N4CCOCC4)nc23)[nH]n1 [Example 369, 2-(morpholin-4-yl)-4-[6-(morpholin-4-yl)pyridin-3-yl]-8-(1H-pyrazol-5-yl)-1,7-naphthyridine] | 115 nM | – |
| CC(C)(C)NC(=O)c1cncc(-c2cc(N3CCOCC3)nc3c(-c4ccn[nH]4)nccc23)c1 [Example 399, N-tert-butyl-5-[2-(morpholin-4-yl)-8-(1H-pyrazol-5-yl)-1,7-naphthyridin-4-yl]pyridine-3-carboxamide] | 618 nM | – |
| C[C@@H]1COCCN1c1cc(P(C)(C)=O)c2ccnc(-c3ccn[nH]3)c2n1 [Example 142, 4-(dimethylphosphoryl)-2-[(3R)-3-methylmorpholin-4-yl]-8-(1H-pyrazol-5-yl)-1,7-naphthyridine] | 44.1 nM | – |
| C[C@@H]1COCCN1c1cc(-c2ccnn2C2CC2)c2ccnc(-c3ccn[nH]3)c2n1 [Example 80, 4-(1-cyclopropyl-1H-pyrazol-5-yl)-2-[(3R)-3-methylmorpholin-4-yl]-8-(1H-pyrazol-5-yl)-1,7-naphthyridine] | 12.1 nM | – |
| CCCCC(C)(O)c1cc(N2CCOC[C@H]2C)nc2c(-c3ccn[nH]3)nccc12 (stereo partly drawn) [Example 284, 2-{2-[(3R)-3-methylmorpholin-4-yl]-8-(1H-pyrazol-5-yl)-1,7-naphthyridin-4-yl}hexan-2-ol] | 41.6 nM | – |
| C[C@@H]1COCCN1c1cc(-c2cccc(F)c2F)c2ccnc(-c3ccn[nH]3)c2n1 [Example 72, 4-(2,3-difluorophenyl)-2-[(3R)-3-methylmorpholin-4-yl]-8-(1H-pyrazol-5-yl)-1,7-naphthyridine] | 6.33 nM | – |
| Fc1cccc(-c2cc(N3CCOCC3)nc3c(-c4ccn[nH]4)nccc23)c1 [Example 298, 4-(3-fluorophenyl)-2-(morpholin-4-yl)-8-(1H-pyrazol-5-yl)-1,7-naphthyridine] | 59.2 nM | – |
| CN=S(C)(=O)c1ccc(-c2cc(N3CCOCC3)nc3c(-c4ccn[nH]4)nccc23)cc1 (stereo not drawn) [Example 5, 4-[4-(N,S-dimethylsulfonimidoyl)phenyl]-2-[morpholin-4-yl]-8-(1H-pyrazol-5-yl)-1,7-naphthyridine] | 64.3 nM | 34.1 nM |
| c1ccc(COc2cc(N3CCOCC3)nc3c(-c4cc[nH]n4)nccc23)cc1 [Example 50, 4-benzyloxy-2-(morpholin-4-yl)-8-(1H-pyrazol-3-yl)-[1,7]naphthyridine] | 410 nM | 514 nM |
| c1coc(Cc2cc(N3CCOCC3)nc3c(-c4ccn[nH]4)nccc23)c1 [Example 310, 4-(furan-2-ylmethyI)-2-(morpholin-4-yl)-8-(1H-pyrazol-5-yl)-1,7-naphthyridine] | 97.7 nM | – |
| C[C@@H]1COCCN1c1cc(-c2ccnn2CC(F)(F)F)c2ccnc(-c3ccn[nH]3)c2n1 [Example 156, 2-[(3R)-3-methylmorpholin-4-yl]-8-(1H-pyrazol-5-yl)-4-[1-(2,2,2-trifluoroethyl)-1H-pyrazol-5-yl]-1,7-naphthyridine] | 80.1 nM | – |
| C[C@@H]1COCCN1c1cc(-c2cncc(Cl)c2)c2ccnc(-c3ccn[nH]3)c2n1 [Example 130, 4-(5-chloropyridin-3-yl)-2-[(3R)-3-methylmorpholin-4-yl]-8-(1H-pyrazol-5-yl)-1,7-naphthyridine] | 21.6 nM | – |

| Compound | IC50 [1] | IC50 [2] |
| --- | --- | --- |
| Cc1sccc1-c1cc(N2CCOC[C@H]2C)nc2c(-c3ccn[nH]3)nccc12 [Example 103, 2-[(3R)-3-methylmorpholin-4-yl]-4-(2-methyl-3-thienyl)-8-(1H-pyrazol-5-yl)-1,7-naphthyridine] | 10.1 nM | – |
| CN(C)C(=O)c1ccc(-c2cc(N3CCOCC3)nc3c(-c4ccn[nH]4)nccc23)cc1 [Example 324, N,N-dimethyl-4-[2-(morpholin-4-yl)-8-(1H-pyrazol-5-yl)-1,7-naphthyridin-4-yl]benzamide] | 77.7 nM | – |
| COc1cccc(OC)c1-c1cc(N2CCOCC2)nc2c(-c3ccn[nH]3)nccc12 [Example 342, 4-(2,6-dimethoxyphenyl)-2-(morpholin-4-yl)-8-(1H-pyrazol-5-yl)-1,7-naphthyridine] | 2770 nM | – |
| CCOC(=O)N=S(C)(=O)c1cccc(-c2cc(N3CCOCC3)nc3c(-c4ccn[nH]4)nccc23)c1 (stereo not drawn) [Example 13] | 141 nM | 104 nM |
| Cc1cscc1-c1cc(N2CCOC[C@H]2C)nc2c(-c3ccn[nH]3)nccc12 [Example 101, 2-[(3R)-3-methylmorpholin-4-yl]-4-(4-methyl-3-thienyl)-8-(1H-pyrazol-5-yl)-1,7-naphthyridine] | 11.3 nM | – |
| Fc1cccc(-c2cc(N3CCOCC3)nc3c(-c4ccn[nH]4)nccc23)c1F [Example 341, 4-(2,3-difluorophenyl)-2-(morpholin-4-yl)-8-(1H-pyrazol-5-yl)-1,7-naphthyridine] | 26.4 nM | – |
| C[C@@H]1COCCN1c1cc(-c2ccns2)c2ccnc(-c3ccn[nH]3)c2n1 [Example 121, 2-[(3R)-3-methylmorpholin-4-yl]-8-(1H-pyrazol-5-yl)-4-(1,2-thiazol-5-yl)-1,7-naphthyridine] | 17.4 nM | – |
| C[C@@H]1COCCN1c1cc(N(C)CC(C)(C)C)c2ccnc(-c3ccn[nH]3)c2n1 [Example 83, N-(2,2-dimethylpropyl)-N-methyl-2-[(3R)-3-methylmorpholin-4-yl]-8-(1H-pyrazol-5-yl)-1,7-naphthyridin-4-amine] | 5.38 nM | – |
| CSc1ncc(-c2cc(N3CCOCC3)nc3c(-c4ccn[nH]4)nccc23)cn1 [Example 395, 4-[2-(methylsulfanyl)pyrimidin-5-yl]-2-(morpholin-4-yl)-8-(1H-pyrazol-5-yl)-1,7-naphthyridine] | 149 nM | – |
| FC1CCCN(c2cc(N3CCOCC3)nc3c(-c4ccn[nH]4)nccc23)C1 (stereo not drawn) [Example 426, 4-(3-fluoropiperidin-1-yl)-2-(morpholin-4-yl)-8-(1H-pyrazol-5-yl)-1,7-naphthyridine] | 159 nM | – |
| C[C@@H]1COCCN1c1cc(-c2cccc(C(C)(C)O)c2)c2ccnc(-c3ccn[nH]3)c2n1 [Example 168, 2-(3-{2-[(3R)-3-methylmorpholin-4-yl]-8-(1H-pyrazol-5-yl)-1,7-naphthyridin-4-yl}phenyl)propan-2-ol] | 530 nM | – |
| C[C@@H]1COCCN1c1cc(-c2ccn(CCO)n2)c2ccnc(-c3ccn[nH]3)c2n1 [Example 160, 2-(3-{2-[(3R)-3-methylmorpholin-4-yl]-8-(1H-pyrazol-5-yl)-1,7-naphthyridin-4-yl}-1H-pyrazol-1-yl)ethanol] | 37.2 nM | – |
| OCc1ccc(-c2cc(N3CCOCC3)nc3c(-c4ccn[nH]4)nccc23)s1 [Example 358, {5-[2-(morpholin-4-yl)-8-(1H-pyrazol-5-yl)-1,7-naphthyridin-4-yl]thiophen-2-yl}methanol] | 46.4 nM | – |
| CC(C)Oc1cc(N2CCOCC2)nc2c(-c3cc[nH]c3)nccc12 [Example 68, 2-(morpholin-4-yl)-4-(propan-2-yloxy)-8-(1H-pyrrol-3-yl)-1,7-naphthyridine] | 589 nM | 472 nM |
| C[C@@H]1COCCN1c1cc(-c2cccnc2O)c2ccnc(-c3ccn[nH]3)c2n1 [Example 167, 3-{2-[(3R)-3-methylmorpholin-4-yl]-8-(1H-pyrazol-5-yl)-1,7-naphthyridin-4-yl}pyridin-2-ol] | 408 nM | – |
| Clc1cc(N2CCOCC2)nc2c(-c3cc[nH]n3)nccc12 [Example 62, 4-chloro-2-morpholin-4-yl-8-(1H-pyrazol-3-yl)-[1,7]naphthyridine] | 997 nM | 707 nM |
| Cc1cccc(-c2cc(N3CCOCC3)nc3c(-c4ccn[nH]4)nccc23)c1C [Example 312, 4-(2,3-dimethylphenyl)-2-(morpholin-4-yl)-8-(1H-pyrazol-5-yl)-1,7-naphthyridine] | 23.7 nM | – |
| Cc1cc(-c2cc(N3CCOCC3)nc3c(-c4ccn[nH]4)nccc23)ccn1 [Example 188, 4-(2-methylpyridin-4-yl)-2-(morpholin-4-yl)-8-(1H-pyrazol-5-yl)-1,7-naphthyridine] | 251 nM | – |
